The values below come from PubChem BioAssay AID330 (DTP/NCI, 2004).

For this assay, the system named is P388 leukemia ip, CD2F1 mice, survival T/C. The assay is described as follows: NCI In Vivo Anticancer Drug Screen. Data for tumor model P388 Leukemia (intraperitoneal) in CD2F1 (CDF1) mice. The settings on record: endpoint: median survival time, higher = longer survival. The method, boiled down:
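Mice carrying the transplanted tumor received test compound or vehicle. Survival was recorded in each group, and the value is the treated-group measurement divided by that of the vehicle-treated control group.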

The mark [1] stands for this setting: dose: 25.0 mg/kg/injection, schedule: Q01DX009 (ip), vehicle: Klucel (hydroxypropylcellulose) (HPC).
Setting [2] is: dose: 50.0 mg/kg/injection, schedule: Q01DX009 (ip), vehicle: Klucel (hydroxypropylcellulose) (HPC).
The mark [3] stands for this setting: dose: 100.0 mg/kg/injection, schedule: Q01DX009 (ip), vehicle: Klucel (hydroxypropylcellulose) (HPC).
The mark [4] stands for this setting: dose: 50.0 mg/kg/injection, schedule: Q01DX005 (ip), vehicle: saline with Tween-80.
[5] abbreviates: dose: 200.0 mg/kg/injection, schedule: Q01DX009 (ip), vehicle: Klucel (hydroxypropylcellulose) (HPC).
The mark [6] stands for this setting: dose: 100.0 mg/kg/injection, schedule: Q01DX005 (ip), vehicle: saline with Tween-80.
[7] abbreviates: dose: 200.0 mg/kg/injection, schedule: Q01DX005 (ip), vehicle: saline with Tween-80.
[8] abbreviates: dose: 50.0 mg/kg/injection, schedule: Q01DX009 (ip), vehicle: saline.
Setting [9] is: dose: 60.0 mg/kg/injection, schedule: Q01DX005 (ip), vehicle: saline with Tween-80.
[10] abbreviates: dose: 120.0 mg/kg/injection, schedule: Q01DX005 (ip), vehicle: saline with Tween-80.
Setting [11] is: dose: 240.0 mg/kg/injection, schedule: Q01DX005 (ip), vehicle: saline with Tween-80.
Where [12] appears, read: dose: 50.0 mg/kg/injection, schedule: Q01DX009 (ip), vehicle: saline with Tween-80.
Where [13] appears, read: dose: 100.0 mg/kg/injection, schedule: Q01DX009 (ip), vehicle: saline with Tween-80.
Where [14] appears, read: dose: 50.0 mg/kg/injection, schedule: Q01DX005 (ip), vehicle: Klucel (hydroxypropylcellulose) (HPC).
Where [15] appears, read: dose: 100.0 mg/kg/injection, schedule: Q01DX005 (ip), vehicle: Klucel (hydroxypropylcellulose) (HPC).
[16] abbreviates: dose: 200.0 mg/kg/injection, schedule: Q01DX005 (ip), vehicle: Klucel (hydroxypropylcellulose) (HPC).
Where [17] appears, read: dose: 25.0 mg/kg/injection, schedule: Q01DX005 (ip), vehicle: Klucel (hydroxypropylcellulose) (HPC).

Several values for one entry are separate records, joined by “and”; a condition that tells them apart may be missing. Identical values can stand only once. Inconclusive results and toxic doses are left out. Peptide text beside a SMILES is read from it. * marks the point of attachment. Cbz = O=C(OCc1ccccc1)*

As for `Nc1nc(=S)ss1`, the T/C was 116 % of control and 98 % of control (dose: 12.5 mg/kg/injection, schedule: Q01DX009 (ip), vehicle: Klucel (hydroxypropylcellulose) (HPC)); 107 % of control and 111 % of control under setting [1]; 109 % of control and 119 % of control under setting [2]; 109 % of control under setting [3].

`C[n+]1c2ccccc2c(Cc2ccccc2)c2ccccc21`: the T/C (dose: 12.5 mg/kg/injection, schedule: Q01DX005 (ip), vehicle: saline with Tween-80) is 108 % of control; the T/C (dose: 25.0 mg/kg/injection, schedule: Q01DX005 (ip), vehicle: saline with Tween-80) is 106 % of control; the T/C under setting [4] was 100 % of control and 94 % of control.

For the compound `CC(C)(C)[Si](C)(C)OCc1ccccc1N1C(=O)C(N=[N+]=[N-])C1/C=C/c1ccccc1` (stereo not drawn), the T/C is 101 % of control (dose: 6.25 mg/kg/injection, schedule: Q01DX001 (ip), vehicle: Klucel (hydroxypropylcellulose) (HPC)); 103 % of control (dose: 12.5 mg/kg/injection, schedule: Q01DX001 (ip), vehicle: Klucel (hydroxypropylcellulose) (HPC)); 94 % of control (dose: 25.0 mg/kg/injection, schedule: Q01DX001 (ip), vehicle: Klucel (hydroxypropylcellulose) (HPC)); 101 % of control (dose: 50.0 mg/kg/injection, schedule: Q01DX001 (ip), vehicle: Klucel (hydroxypropylcellulose) (HPC)); 98 % of control (dose: 100.0 mg/kg/injection, schedule: Q01DX001 (ip), vehicle: Klucel (hydroxypropylcellulose) (HPC)); 89 % of control (dose: 400.0 mg/kg/injection, schedule: Q01DX001 (ip), vehicle: saline with Tween-80).

For the compound `[I][Pt+2][I].[NH-]CC[NH-]`, the T/C is 87 % of control (dose: 2.75 mg/kg/injection, schedule: Q01DX009 (ip), vehicle: Klucel (hydroxypropylcellulose) (HPC)); 117 % of control (dose: 5.5 mg/kg/injection, schedule: Q01DX009 (ip), vehicle: Klucel (hydroxypropylcellulose) (HPC)); 109 % of control (dose: 11.0 mg/kg/injection, schedule: Q01DX009 (ip), vehicle: Klucel (hydroxypropylcellulose) (HPC)); 111 % of control (dose: 22.0 mg/kg/injection, schedule: Q01DX009 (ip), vehicle: Klucel (hydroxypropylcellulose) (HPC)).

`COC(=O)[C@@H]1N2C(=O)C=NO[C@H]2SC1(C)C`: the T/C runs as follows: (dose: 60.0 mg/kg/injection, schedule: Q01DX005 (ip), vehicle: saline) 95 % of control; (dose: 120.0 mg/kg/injection, schedule: Q01DX005 (ip), vehicle: saline) 98 % of control; (dose: 240.0 mg/kg/injection, schedule: Q01DX005 (ip), vehicle: saline) 104 % of control.

Regarding `C1Cc2c3c(c4c(c2C1)CCC4)CCC3`, the T/C was 91 % of control under setting [1], 95 % of control under setting [2], 91 % of control under setting [3] and 100 % of control under setting [5].

As for `S=c1n(-c2ccc(Cl)cc2)c2nc3ccccc3nc(/c2=N\Nc2cc(Cl)ccc2Cl)n1-c1ccc(Br)cc1`, the T/C under setting [4] is 100 % of control, the T/C under setting [6] was 105 % of control and the T/C under setting [7] was 97 % of control.

For the compound `CC[N+](CC)(CC)CC(=O)c1ccc(Br)cc1`, the T/C was 100 % of control (dose: 12.5 mg/kg/injection, schedule: Q01DX009 (ip), vehicle: saline); 104 % of control (dose: 25.0 mg/kg/injection, schedule: Q01DX009 (ip), vehicle: saline); 95 % of control under setting [8].

For `CCC(c1ccc(C(C)=O)c(O)c1)C(CC)c1ccc(C(C)=O)c(O)c1` (stereo not drawn), the T/C runs as follows: under setting [9], 97 % of control; under setting [10], 90 % of control; under setting [11], 88 % of control.

With `CN(C(=S=O)c1ccccc1)c1ccc([N+](=O)[O-])cc1`, the T/C is 95 % of control (dose: 50.0 mg/kg/injection, schedule: Q04DX002 (ip), vehicle: saline); 95 % of control (dose: 100.0 mg/kg/injection, schedule: Q04DX002 (ip), vehicle: saline); 96 % of control (dose: 200.0 mg/kg/injection, schedule: Q04DX002 (ip), vehicle: saline).

For the compound `Nc1ccccc1-c1nnc(-c2ccccc2)o1`, the T/C by setting is: under setting [9], 100 % of control; under setting [10], 89 % of control; under setting [11], 86 % of control.

Take `CS(=O)(=O)OCCN(CCOS(C)(=O)=O)c1cccc(C(F)(F)F)c1`: the T/C was 100 % of control (dose: 0.75 mg/kg/injection, schedule: Q04DX003 (ip), vehicle: saline); 100 % of control (dose: 1.5 mg/kg/injection, schedule: Q04DX003 (ip), vehicle: saline); 100 % of control (dose: 3.0 mg/kg/injection, schedule: Q04DX003 (ip), vehicle: saline); 170 % of control and 212 % of control (dose: 25.0 mg/kg/injection, schedule: Q04DX003 (ip), vehicle: saline with Tween-80); 159 % of control under setting [12]; 216 % of control (dose: 50.0 mg/kg/injection, schedule: Q04DX003 (ip), vehicle: saline with Tween-80). In addition, the T/C is, setting by setting: under setting [13], 213 % of control; (dose: 100.0 mg/kg/injection, schedule: Q04DX003 (ip), vehicle: saline with Tween-80) 87 % of control.

Consider `O=c1n(-c2ccccc2)c(=O)n2n1C1CC3c4ccccc4C1C2C31CC1` (stereo not drawn), for which the T/C reads like this: under setting [4], 104 % of control; under setting [6], 101 % of control; under setting [7], 92 % of control.

With `CCCCC1(C#Cc2ccccc2)Sc2ccccc2N1C` (stereo not drawn), the T/C is 98 % of control under setting [9], 101 % of control under setting [10] and 107 % of control under setting [11].

Turning to `C[N+]1(C[Si](C)(C)c2ccccc2)CCCCC1`, the T/C is, setting by setting: (dose: 12.5 mg/kg/injection, schedule: Q01DX005 (ip), vehicle: saline) 104 % of control; (dose: 25.0 mg/kg/injection, schedule: Q01DX005 (ip), vehicle: saline) 100 % of control; (dose: 50.0 mg/kg/injection, schedule: Q01DX005 (ip), vehicle: saline) 101 % of control and 105 % of control.

Regarding `O=C1SC(c2ccccc2)(c2ccccc2)c2cscc21`, the T/C by setting is: (dose: 25.0 mg/kg/injection, schedule: Q01DX009 (ip), vehicle: saline with Tween-80) 92 % of control; under setting [12], 94 % of control; under setting [13], 99 % of control; (dose: 200.0 mg/kg/injection, schedule: Q01DX009 (ip), vehicle: saline with Tween-80) 90 % of control.

Consider `ClC1=C(Cl)C2(Cl)C3C(c4ccc(I)cc4C4C3C3(Cl)C(Cl)=C(Cl)C4(Cl)C3(Cl)Cl)C1(Cl)C2(Cl)Cl` (stereo not drawn), for which the T/C under setting [8] is 105 % of control; the T/C (dose: 100.0 mg/kg/injection, schedule: Q01DX009 (ip), vehicle: saline) was 108 % of control; the T/C (dose: 200.0 mg/kg/injection, schedule: Q01DX009 (ip), vehicle: saline) was 105 % of control.

As for `[CH3][Sn]([CH3])([Cl])[CH2]CC[CH2][Ge]([Cl])([Cl])[Cl]`, the T/C is, setting by setting: (dose: 0.78 mg/kg/injection, schedule: Q01DX009 (ip), vehicle: saline) 114 % of control; (dose: 1.56 mg/kg/injection, schedule: Q01DX009 (ip), vehicle: saline) 119 % of control.

Consider `N#CC12CCCCC1CCC1(C2)OCCO1` (stereo not drawn), for which the T/C was 111 % of control under setting [2], 100 % of control under setting [3] and 108 % of control under setting [5].

For `COC(=O)C(CC(C)C)NC(=O)C(CO)NC(=O)OCc1ccccc1` (stereo not drawn) (Cbz-Ser-Leu-OMe; configuration not given here), the T/C is, setting by setting: under setting [4], 100 % of control; under setting [6], 99 % of control; under setting [7], 100 % of control.

Take `CC(C)N1CSC(=S)NCCNC(=S)SC1`: the T/C is 101 % of control under setting [14], 110 % of control under setting [15] and 110 % of control under setting [16].

For `CN1CCN(c2c(C(=O)Nc3ccc([N+](=O)[O-])cc3)cc([N+](=O)[O-])cc2[N+](=O)[O-])CC1`, the T/C runs as follows: under setting [9], 92 % of control; under setting [10], 90 % of control.

For the compound `Oc1ccc(Nc2ccc3[nH]c4ccccc4c3c2)cc1`, the T/C is, setting by setting: under setting [17], 101 % of control; under setting [14], 106 % of control; under setting [15], 104 % of control.

`COc1cccc(/C=C\C(=O)c2ccccc(=O)c2O)c1OC`: the T/C is, setting by setting: under setting [17], 106 % of control; under setting [14], 101 % of control; under setting [15], 114 % of control; under setting [16], 107 % of control.
